The subject of this test is CEM cells HIV-1 protection, formazan growth assay. Description: NCI AIDS Antiviral Assay. The conditions noted are these: for pIC50: measured here: growth of uninfected CEM cells. The procedure, abridged: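 Protection of CEM cells against HIV-1 measured as cell growth via soluble formazan read-out, with five concentrations tested on both infected and uninfected cells; failure to protect may reflect toxicity.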

pEC50, pIC50: −log10 of the molar value. The source made the active and inactive calls.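 The calls were made as follows: active = compounds giving half or more protection of infected cells from virus-caused growth loss, again on retest; inactive = the rest.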 Where a SMILES comes first, the peptide text is derived from it.

On to `O=C(NC(=O)c1cn(CCN(CCO)C(=O)NCCCCCCNC(=O)N(CCO)CCn2cc(C(=O)NC(=O)OCc3ccccc3)c(=O)[nH]c2=O)c(=O)[nH]c1=O)OCc1ccccc1`, for which the result was inactive.

For `NCCSSCc1ccccc1CSSCCN`, the outcome was inactive.

Regarding `CC(=O)Nc1ccc(S(=O)(=O)/N=C(/C2CCCC2)N2CCCC2)cc1`, the pEC50 was below 3.70 and the pIC50 was below 3.70.

For the compound `O=C1c2ccccc2-c2nnc3c(c21)-c1ccccc1C3`, the pEC50 was below 3.70 and the pIC50 was 4.03.

For the compound `O=C(CNc1ccccc1Cl)Nn1c(-c2ccccc2)nc2ccccc2c1=O`, the pEC50 is below 3.70 and the pIC50 was 4.52.

Take `Cc1ccc(-n2cnc(C(=N)C#N)c2N)cc1`: the pEC50 was below 3.70 and the pIC50 was 3.91.

Take `O=C1CCC2(c3ccccc3)Nc3ccccc3N12` (stereo not given): the pEC50 was below 3.70 and the negative logarithm of the IC50 (pIC50) was 3.90.

Consider `Cc1ccc2c(c1)C(=O)N(CC[P+](c1ccccc1)(c1ccccc1)c1ccccc1)C2=O`, for which the pEC50 was below 3.70 and the pIC50 is 4.51.

For the compound `Cn1c2ccccc2c2c(=O)[nH]c(=O)[nH]c21`, the pEC50 was below 3.70 and the pIC50 was below 3.70.

On to `COc1ccc(/C=C/C(=N/NC(=O)N/N=C(/C=C/c2ccc(OC)cc2)C(C)(C)CN2CCCCC2)C(C)(C)CN2CCCCC2)cc1`, for which the pEC50 was below 3.70 and the pIC50 was 5.68.

As to `CCOc1ccc(N=Nc2ccc3oc(=O)c(/C(C)=N\NC(=O)CC(=O)Nc4ccc(Cl)cc4)cc3c2)cc1`, the pEC50 is below 4.88 and the negative logarithm of the IC50 (pIC50) is below 4.88.

In the case of `COC(=O)C1=C(C)NC2(C)SC1C(C)C2C(=O)OC` (stereo not given), the pEC50 is below 3.06 and the negative-log IC50 (pIC50) was 3.31.

With `CCOP(=O)(OCC)C1C(=O)O[C@H]2CCCC[C@@H]12` (stereo not given in full), the result was inactive.

Take `CC(CCC#N)(CCC#N)C(=O)CC(O)(C(F)(F)F)C(F)(F)F`: the pEC50 is below 3.70 and the pIC50 was 5.63.

Regarding `CC(C)(C)C(=O)OC1CCOP(=O)(OCC2OC(n3cc(F)c(=O)[nH]c3=O)CC2O)O1` (stereo not given), the pEC50 is below 3.70 and the pIC50 is 5.57.

For `CCC(C)C(NC(=O)c1ccccc1SC(=O)CCCC[n+]1ccccc1)C(=O)O` (stereo not given), the negative-log EC50 (pEC50) was 4.63 and the negative logarithm of the IC50 (pIC50) is below 3.70.

For the compound `COc1ccc(OC)c(NC(=O)Nc2nccs2)c1`, the pEC50 is below 3.70 and the negative logarithm of the IC50 (pIC50) was below 3.70.

In the case of `Cc1cc2c(C(C)C)c(O)c(O)c(C=O)c2c(O)c1-c1c(C)c(N(c2cccc3ccccc23)c2cccc3ccccc23)c2c(C(C)C)c(O)c(O)c(C=O)c2c1O`, the result was inactive.

With `O=[N+]([O-])c1cc(Cl)ccc1OCc1ccccc1`, the result was inactive.

On to `CCSCCCCCCCCCCC(=O)OCC1OC(n2cc(C)c(=O)[nH]c2=O)CC1O` (stereo not given), for which the pEC50 was below 4.25 and the negative logarithm of the IC50 (pIC50) was 4.58.

With `CSc1nc(NC2OCC(O)C(O)C2O)cc(=O)[nH]1` (stereo not given), the result was inactive.

With `CCSc1c2ccccc2c(-c2nc(F)nc(F)n2)n1CCc1ccccc1`, the pEC50 is below 4.88 and the pIC50 is below 4.88.

As for `CC(C)CCCC(C)[C@H]1CCC2C3CC[C@H]4C[C@@H](CCCP(=O)(c5ccccc5)c5ccccc5)CC[C@]4(C)C3CC[C@@]21C` (stereo not given in full), the pEC50 is below 4.30 and the pIC50 was below 4.30.

With `Nc1ncnc2c1ncn2C1OC(CSC(F)(F)F)C(O)C1O` (stereo not given), the pEC50 was below 3.15 and the pIC50 is 3.95.

Consider `CCOC(=O)n1[nH]c(=O)n(-c2ccccc2)c1=O`, for which the pEC50 was below 3.70 and the negative-log IC50 (pIC50) is below 3.70.

As for `CC(C)(C)[Si](C)(C)OCC1OC(n2ccc(=O)[nH]c2=O)C(C/C=[N+](/[O-])CC2OC(n3ccc(=O)[nH]c3=O)C(O[Si](C)(C)C(C)(C)C)C2O[Si](C)(C)C(C)(C)C)C1O[Si](C)(C)C(C)(C)C` (stereo not given), the pEC50 is below 4.00 and the pIC50 was 4.05.

As for `Cc1cc(C=O)c(C)c2c1[nH]c1ccccc12`, the pEC50 was below 3.70 and the pIC50 was 5.12.

Take `CCCCN1CC(=O)N2CCCC(c3ccccc3)N2C(=O)C1` (stereo not given): the pEC50 was below 3.10 and the pIC50 was 3.46.

Regarding `O=C(NI1OC(=O)c2ccccc21)c1ccc(Cl)cc1`, the pEC50 was below 3.82 and the pIC50 was 4.07.

With `c1ccc(-c2cn3c(nc4ccccc43)c(-c3ccccc3)n2)cc1`, the pEC50 is below 3.70 and the negative logarithm of the IC50 (pIC50) is 3.88.

`CNCS(=O)(=O)O`: the pEC50 was below 3.70 and the pIC50 was 4.01.

Take `O=C(/C=C/c1ccc(Cl)cc1)NC1C=Nc2ccc([N+](=O)[O-])cc2NC1=O` (stereo not given): the pEC50 is below 3.70 and the pIC50 was below 3.70.

As to `CC(C)CC(NC(=O)CNC(=O)C(CC(C)C)NC(=O)C(Cc1c[nH]cn1)NC(=O)C(CC(N)=O)NC(=O)C1CCCN1C(=O)C(C)NC(=O)C(Cc1ccc(O)cc1)NC(=O)C(C)NC(=O)C1CCCN1C(=O)C(CCC(=O)O)NC(=O)C(CC(=O)O)NC(=O)C(Cc1ccccc1)NC(=O)C(CC(N)=O)NC(=O)C(C)N)C(=O)O` (stereo not given) (H-ANFDEPAYAPNHLGL-OH; configuration not given here), the pEC50 is below 4.42 and the pIC50 was below 4.42.

Consider `COC=C1C(=O)OC(C)(C)OC1=O`, for which the pEC50 is 4.54 and the pIC50 was 3.97.

Take `O=[N+]([O-])c1ccc(N=C/C=C/Nc2ccc([N+](=O)[O-])cc2)cc1`: the pEC50 is below 3.70 and the pIC50 was 4.28.

`Cc1c(N=Nc2ccc(Cl)cc2)c(C)n(C2OC(CO)C(O)C(O)C2O)c(=S)c1C#N` (stereo not given): the pEC50 is below 3.70 and the negative logarithm of the IC50 (pIC50) was 4.46.

Regarding `CC(C)CCC[C@@H](C)C1CCC2C3CCC4C[C@@H](CCC=C(c5cc(F)c(O)c(C(=O)O)c5)c5cc(F)c(O)c(C(=O)O)c5)CC[C@]4(C)C3CC[C@@]21C` (stereo not given in full), the pEC50 is 4.66 and the pIC50 is below 3.70.

With `CC(=O)[CH-]C(C)=O.CC(=O)[CH-]C(C)=O.[CH2-]CCCCCCC.[CH2-]CCCCCCC.[Sn+4]`, the pEC50 is below 4.32 and the pIC50 was below 4.32.

Take `COc1cc(OC)c(/C=C\c2cc(/C=C/c3c(OC)cc(OC)cc3OC)c3ccccc3[n+]2C)c(OC)c1`: the pEC50 was below 5.10 and the pIC50 was 6.45.

In the case of `Nc1ccc2cc3[nH]c4cc(N)ccc4c3nc2c1`, the pEC50 was below 5.87 and the negative-log IC50 (pIC50) was 6.47.

Consider `CC(C)(C)OC1=C(OC(C)(C)C)C(O)(c2ccccc2)C1=O` (stereo not given), for which the outcome was inactive.

`O=C(O)CSCC(=O)Nc1ccc2cccc3c2c1CC3`: the outcome was inactive.

For `C=C1[C@H](OC(=O)C(C)C)[C@@H](OC(C)=O)[C@@H](OC(C)=O)C(C)(C)[C@@H]2O[C@H]2[C@@H](C)C(=O)[C@@]2(OC(C)=O)C[C@@](C)(OC(C)=O)[C@H](OC(C)=O)[C@@H]2[C@H]1OC(C)=O`, the pEC50 was below 3.70 and the pIC50 was below 3.70.

Turning to `COc1ccc(-c2nc3ccccc3s2)cc1S(=O)(=O)O`, the pEC50 was below 3.98 and the pIC50 is 4.02.

On to `CCOC(=O)c1c(NC(=S)Nc2ccccc2)sc2c1CCN(C)C2`, for which the pEC50 is below 3.70 and the negative-log IC50 (pIC50) is below 3.70.

In the case of `N#Cc1c(Cl)/c(=C/O)c(=O)n2c1nc1ccccc12`, the pEC50 is below 3.70 and the negative logarithm of the IC50 (pIC50) was 3.96.

Consider `O=C(N/N=C(\c1ccccc1)c1ccccn1)NC1CCCCC1`, for which the result was inactive.

`O=C1C=CC(=O)c2c1ccc1c3ccccc3n(-c3cccc([N+](=O)[O-])c3)c21`: the pEC50 is below 4.00 and the pIC50 is 5.32.

In the case of `Cc1c(C)n(-c2ccccc2)c2nc(S(C)=O)nc(S(C)=O)c12` (stereo not given), the pEC50 is below 4.70 and the pIC50 is 5.87.

As to `COC(=O)c1ccccc1NC(=S)NN(C)C`, the pEC50 is below 3.70 and the pIC50 is 3.82.

For `CO/C1=C\C(C)=C\C(C)C(O)C(C)C/C(C)=C/C=C/C(OC)C(C(C)C(O)C(C)C2(O)CC(O)C(C)C(C(C)C)O2)OC1=O` (stereo not given), the pEC50 was below 6.70 and the pIC50 was 7.89.

For the compound `C=Cc1c2[n-]c(c1C)/C=c1\[n-]/c(c(C)c1C=C)=C\c1[n-]c(c(CCC(=O)O)c1C)/C=c1\[n-]/c(c(C)c1CCC(=O)O)=C\2.[Fe+4]`, the pEC50 is below 4.84 and the negative logarithm of the IC50 (pIC50) was below 4.84.

As for `C[C@@H](c1ccccc1)N(CC#N)[C@H]1CCC[C@]1(O)/C=C/c1ccc2c(c1)OCO2`, the pEC50 is below 4.30 and the pIC50 was below 4.30.

In the case of `Cc1ccc(/C=N/NC2=NCCN2)s1`, the pEC50 is below 3.70 and the pIC50 was 3.78.

For the compound `C=CC(=O)N1C/C(=C\c2ccc(N(C)C)cc2)C(=O)/C(=C/c2ccc(N(C)C)cc2)C1`, the pEC50 was below 3.70 and the pIC50 was 4.22.

With `Cc1nc2ccccc2c(=O)n1Nc1ccc(C(=O)O)cc1`, the outcome was inactive.

`COC(=O)C(C(=O)Cc1ccccc1[N+](=O)[O-])C(=O)OC`: the pEC50 was below 3.60 and the pIC50 is 3.99.

In the case of `CN(C)CCNc1ccc2c(=O)n(CCN(C)C)c(=O)n3c4ccccc4c(=O)c1c23`, the pEC50 is below 7.00 and the pIC50 was 8.03.

Consider `CCCCNC(=S)OCCC(C)CCCC(C)C` (stereo not given), for which the outcome was inactive.

In the case of `C/C(=N/O)C1CC(C)([N+](=O)[O-])CCC1(C)O` (stereo not given), the pEC50 is below 3.70 and the negative logarithm of the IC50 (pIC50) was below 3.70.

In the case of `CC(=O)OCC1OC(N2C(=O)[C@@H](Oc3ccccc3)[C@H]2c2ccccc2)C(OC(C)=O)C(OC(C)=O)C1OC(C)=O` (stereo not given in full), the pEC50 was below 3.70 and the pIC50 was 3.76.

Regarding `O=C1Nc2ccccc2/C1=c1/sc2nc3ccccc3n2c1=O`, the result was inactive.

On to `O=C1C(=Cc2ccc([N+](=O)[O-])o2)C(=O)N(CCc2ccccc2)S(=O)(=O)N1CCc1ccccc1`, for which the pEC50 was below 5.28 and the pIC50 was below 5.28.

As to `Cc1nc2ccccc2c2nnc(SCC(=O)N(Cc3ccccc3)c3ccccc3)n12`, the pEC50 is below 3.70 and the pIC50 is below 3.70.

Consider `C=CCCCCCCCCCOC1C=CC(O)C(CO)O1` (stereo not given), for which the pEC50 was below 3.70 and the pIC50 is 4.45.

With `N#C/C(N)=C(\C#N)N=CNc1ccc(N)cc1`, the pEC50 was below 3.70 and the pIC50 was below 4.00.

As a reminder, the pEC50 is the EC50 on a negative log10 scale, so that one unit is a factor of ten. By pIC50 is commonly meant the IC50 on a negative log10 scale, so that one unit is a factor of ten. Low values mean a high IC50, high ones a low IC50.

These data come from PubChem BioAssay AID179 (DTP/NCI, 2004).
